The results in this text go back to patent US12396942B2, “Seed extract of Annona cherimola” (CLR-Chemisches Laboratorium Dr. Kurt Richter GmbH, priority 2019, dated 2025).

In one assay the test system is IL-8. Nature of the assay: Capsaicine-induced IL-8 release in co-culture of keratinocytes and human sensory neurons. Particulars: FIG. 4. The assay is classed as cell-based. On the procedure:
(§1) To examine whether an F230 extract prepared as described in Example 1 is able to inhibit IL-1β and IL-8 expression, a co-culture system of keratinocytes and human sensory neurons was used. Human sensory neurons were derived from human induced pluripotent stem cells (hiPS cells). hiPS cells were obtained by transfecting human fibroblasts which were reprogrammed into […]. hiPS cells were plated in 6 wells plates coated by a thin layer of Matrigel® (Corning GmbH, Kaiserslautern, Germany) at a density of 250,000 cells in a medium composed by DMEM-F12 (Pan-Biotech, Aidenbach, Germany) supplemented with 10% Knockout Serum Replacement (Life technologies, Carlsbad, USA), 0.1 μM retinoic acid (Sigma Aldrich, Taufkirchen, Germany), 1% P/S (Pan-Biotech) and a cocktail of inhibitors. The culture was maintained for 6 days at 37° C. and 5% of CO2.
(§2) After 6 days of differentiation, hiPS cells were plated at a density of 20,000 cells in the differentiation medium using 96-well plates that had been coated with a thin layer of Matrigel®. […] Samples were evaluated by cytometry flux (BD Bioscience) and compared to non-treated controls.

A further assay deals with IL-1β. The assay can be described thus: Capsaicine-induced IL-1β release in co-culture of keratinocytes and human sensory neurons. In kind it is cell-based. Particulars: FIG. 3. As for the experimental part:
as §1, §2

Setting [1] is: co-culture, capsaicine as stimulus, compared to non-treated controls.
Setting [2] is: co-culture of keratinocytes and human sensory neurons, 1 hour capsaicin stimulation, supernatant.

Consider `COc1cc(CNC(=O)CCCC/C=C/C(C)C)ccc1O` [capsaicine], for which the “IL-8 expression on incubation with capsaicine alone” value in the assay with IL-8 (setting [1]) is given as “strongly induced IL-8 expression”. The “IL-1β expression on incubation with capsaicine alone” value with IL-1β (setting [1]) is given as “strongly induced IL-1β expression”.
Regarding `Oc1cc2c(cc1O)CN(C(=S)NCCc1ccc(Cl)cc1)CCC2` [capsazepine], the “inhibition of capsaicine-induced IL-8 release” value with IL-8 (setting [2]) is “significantly reduced IL-8 release”. Besides, in the assay on IL-1β (setting [2]), the “inhibition of capsaicine-induced IL-1β release” value is listed as “completely abrogates IL-1β release”.
